According to patent US20110039873A1, “SUBSTITUTED PYRAZOLO[1,5-a] PYRIDINE COMPOUNDS HAVING MULTI-TARGET ACTIVITY” (priority 2009, published 2011):
Like-named read-outs stand apart in the source and are kept apart here.

Columns and labels:
[1] = biological target: T1, recombinant full length human JNK3 enzyme (Homo sapiens, UniProt P53779); test: JNK 3 inhibition assay (ATP depletion, luciferase); type: biochemical; settings: for IC50: 10 uM ATP, ATF2 substrate; for JNK-3 inhibition (in words): see Table 2
T1 construct: recombinant full length human JNK2 or JNK3 enzyme; purchased Upstate; host or cells: Sf21 cells
T1 sequence (P53779 whole entry): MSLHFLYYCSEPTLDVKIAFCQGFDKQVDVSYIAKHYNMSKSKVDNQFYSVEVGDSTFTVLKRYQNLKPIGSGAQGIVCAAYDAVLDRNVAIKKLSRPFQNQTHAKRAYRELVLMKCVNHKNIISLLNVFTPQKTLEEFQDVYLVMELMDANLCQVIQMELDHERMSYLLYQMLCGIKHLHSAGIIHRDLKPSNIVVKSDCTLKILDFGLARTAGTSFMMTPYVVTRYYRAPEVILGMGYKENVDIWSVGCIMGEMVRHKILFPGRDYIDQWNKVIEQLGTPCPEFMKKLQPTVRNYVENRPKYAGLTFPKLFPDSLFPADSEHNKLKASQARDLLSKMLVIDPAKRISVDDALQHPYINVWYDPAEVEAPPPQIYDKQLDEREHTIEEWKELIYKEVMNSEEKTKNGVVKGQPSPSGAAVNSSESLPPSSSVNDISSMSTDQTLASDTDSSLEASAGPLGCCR
Procedure: In a 96-well plate, recombinant full length human JNK2 or JNK3 enzyme (40 ng) expressed in Sf21 cells (Upstate) was incubated with the substrate ATF2 (3 uM) for 1 hour in the presence of 10 uM ATP. […] The ATP levels were quantified using luciferase with luminescence read on a Victor Light 1420 luminometer. IC50 calculations were plotted using a nonlinear regression curve fit.

[2] = biological target: T2, recombinant full length human JNK2 enzyme (Homo sapiens, UniProt P45984); test: JNK 2 inhibition assay (ATP depletion, luciferase); type: biochemical
T2 construct: recombinant full length human JNK2 or JNK3 enzyme; purchased Upstate; host or cells: Sf21 cells
T2 sequence (P45984 whole entry): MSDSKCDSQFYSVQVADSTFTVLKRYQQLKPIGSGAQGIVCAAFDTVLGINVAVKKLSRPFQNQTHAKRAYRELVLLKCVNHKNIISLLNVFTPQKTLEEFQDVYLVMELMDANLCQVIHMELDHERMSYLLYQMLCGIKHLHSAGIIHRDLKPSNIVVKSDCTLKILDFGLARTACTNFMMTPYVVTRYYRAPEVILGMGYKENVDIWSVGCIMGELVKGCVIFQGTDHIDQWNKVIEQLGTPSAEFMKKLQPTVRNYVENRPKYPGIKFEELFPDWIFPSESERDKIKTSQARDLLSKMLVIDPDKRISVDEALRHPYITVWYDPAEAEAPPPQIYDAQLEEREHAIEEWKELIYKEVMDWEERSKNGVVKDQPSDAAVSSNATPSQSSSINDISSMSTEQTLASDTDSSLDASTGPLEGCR
Procedure: In a 96-well plate, recombinant full length human JNK2 or JNK3 enzyme (40 ng) expressed in Sf21 cells (Upstate) was incubated with the substrate ATF2 (3 uM) for 1 hour in the presence of 10 uM ATP. […] IC50 calculations were plotted using a nonlinear regression curve fit.

[3] = system: at least one of JNK 3 or JNK 2 and at least one of PDE 10 or PDE 4; test: Dual inhibition (phosphodiesterase and JNK); type: biochemical, human; settings: IC50 JNK 3 or JNK 2 less than about 5.00 μM and PDE 10 or PDE 4 less than about 20.0 or 30.0 μM
Procedure: In a 96-well plate, recombinant full length human JNK2 or JNK3 enzyme (40 ng) expressed in Sf21 cells (Upstate) was incubated with the substrate ATF2 (3 uM) for 1 hour in the presence of 10 uM ATP. The amount of ATP depletion by the JNK enzyme is measured in the presence or absence of test compounds (0-30 uM). The ATP levels were quantified using luciferase with luminescence read on a Victor Light 1420 luminometer. IC50 calculations were plotted using a nonlinear regression curve fit.
(§1) In a 96-well plate, the catalytic domain of phosphodiesterase 4B enzyme (40 mU/well) cloned from human brain (Scottish Biomedical) was combined with 5 uM cAMP substrate (Sigma). Test compounds (0-30 uM) or vehicle (0.5% DMSO) were added to the enzyme/substrate and incubated 1 hour. Using a PDELight® kit (Cambrex), the amount of AMP produced in the reaction from the hydrolysis of cAMP was quantified using PDELight AMP Detection Reagent which converts the AMP directly to ATP. The assay uses luciferase, which catalyses the formation of light from the newly formed ATP and luciferin. The luminescence was read on a Victor Light 1420 luminometer. IC50 calculations were plotted using a nonlinear regression curve fit.
as §1, with “plate, recombinant human” for “plate, the catalytic domain of”, “phosphodiesterase 10A1” for “phosphodiesterase 4B”, “enzyme (10 U/well) expressed in Baculovirus infected Sf9 cells (BPS Biosciences)” for “enzyme (40 mU/well) cloned from human brain (Scottish Biomedical)”, “with 1” for “with 5”

[4] = biological target: T3, recombinant human phosphodiesterase 10A1 enzyme (Homo sapiens, UniProt Q9Y233); test: PDE10 inhibition assay (PDELight); type: biochemical; settings: for IC50: 1 uM cAMP, read-out: PDE 10 Inhibition (IC50 in μM); for PDE-10 inhibition (in words): Table 2
T3 construct: purchased BPS Biosciences; host or cells: Baculovirus infected Sf9 cells
T3 sequence (Q9Y233 1-779 isoform Q9Y233-1): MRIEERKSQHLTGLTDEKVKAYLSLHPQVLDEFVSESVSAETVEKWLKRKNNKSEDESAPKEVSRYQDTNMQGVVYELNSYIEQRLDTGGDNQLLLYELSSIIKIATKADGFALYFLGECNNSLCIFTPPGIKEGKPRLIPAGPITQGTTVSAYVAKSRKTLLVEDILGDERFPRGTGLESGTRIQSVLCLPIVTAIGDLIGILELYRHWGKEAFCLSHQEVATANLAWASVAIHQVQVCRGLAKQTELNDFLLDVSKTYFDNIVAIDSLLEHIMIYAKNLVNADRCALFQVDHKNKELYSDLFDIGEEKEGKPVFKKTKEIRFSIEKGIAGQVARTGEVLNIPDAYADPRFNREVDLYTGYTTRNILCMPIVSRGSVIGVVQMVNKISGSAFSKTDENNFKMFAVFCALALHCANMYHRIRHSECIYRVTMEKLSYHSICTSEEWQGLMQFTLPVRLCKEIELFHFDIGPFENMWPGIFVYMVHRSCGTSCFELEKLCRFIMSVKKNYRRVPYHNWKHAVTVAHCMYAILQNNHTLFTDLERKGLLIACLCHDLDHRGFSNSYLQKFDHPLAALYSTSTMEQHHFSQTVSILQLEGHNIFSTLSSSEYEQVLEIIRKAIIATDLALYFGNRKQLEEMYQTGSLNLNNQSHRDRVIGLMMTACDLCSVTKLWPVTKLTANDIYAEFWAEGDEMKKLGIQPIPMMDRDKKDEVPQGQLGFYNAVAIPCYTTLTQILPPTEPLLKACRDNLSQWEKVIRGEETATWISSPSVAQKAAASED
Procedure: In a 96-well plate, recombinant human phosphodiesterase 10A1 enzyme (10 U/well) expressed in Baculovirus infected Sf9 cells (BPS Biosciences) was combined with 1 uM cAMP substrate (Sigma). […] Using a PDELight® kit (Cambrex), the amount of AMP produced in the reaction from the hydrolysis of cAMP was quantified using PDELight AMP Detection Reagent which converts the AMP directly to ATP. The assay uses luciferase, which catalyses the formation of light from the newly formed ATP and luciferin. The luminescence was read on a Victor Light 1420 luminometer. IC50 calculations were plotted using a nonlinear regression curve fit.

[5] = system: Mouse BV-2 microglial cells; test: BV-2 glial cell assay (TNF-α and MCP-1 by Luminex); type: cell-based; settings: for EC50: Mus musculus, BV-2, LPS and IFN-γ activated, 20 hours
Procedure: Mouse BV-2 microglial cells were seeded on 96-well plates at a concentration of 3×10^4 cells/well. Cells were activated with 100 ng/mL LPS and IFN-γ (100 ng/mL) in the presence or absence of test compounds (0-30 uM). Following incubation for 20 hours, cells were spun down and supernatant collected. The supernatant was analyzed via Luminex for the presence of TNF-α and MCP-1.

[6] = biological target: T4, catalytic domain of phosphodiesterase 4B enzyme cloned from human brain (Homo sapiens, UniProt Q07343); test: PDE4 inhibition assay (PDELight); type: biochemical; settings: for IC50: 5 uM cAMP, read-out: PDE 4 Inhibition (IC50 in μM)
T4 construct: the catalytic domain of phosphodiesterase 4B enzyme; purchased Scottish Biomedical
T4 sequence (Q07343 330-659 limits assumed): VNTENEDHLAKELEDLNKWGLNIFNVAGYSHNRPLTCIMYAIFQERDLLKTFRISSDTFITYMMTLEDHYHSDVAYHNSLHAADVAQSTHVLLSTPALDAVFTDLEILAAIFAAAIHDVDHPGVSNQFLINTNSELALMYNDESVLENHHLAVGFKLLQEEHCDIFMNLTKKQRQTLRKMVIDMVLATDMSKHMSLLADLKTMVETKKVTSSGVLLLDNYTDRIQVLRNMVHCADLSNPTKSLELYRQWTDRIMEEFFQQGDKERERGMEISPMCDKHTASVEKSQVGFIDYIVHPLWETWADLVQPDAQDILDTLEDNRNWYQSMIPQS
Procedure: as §1, with “Test compounds (0-30 uM) or vehicle (0.5% DMSO) were added to the enzyme/substrate and incubated 1 hour.” left out, “The luminescence was read on a Victor Light 1420 luminometer.” left out

[7] = system: rat chronic constriction injury (CCI) model of neuropathic pain; test: Rat chronic constriction injury (CCI) model of neuropathic pain; type: in vivo; settings: IP, dose not given; 50% paw withdrawal threshold, von Frey
Procedure: To induce allodynia, male Sprague-Dawley rats underwent chronic constriction injury (CCI) to the sciatic nerve as described by Bennett and Xie, Pain 1988; 33(1):87-107. The plantar surface of the hind paws was stimulated with von Frey filaments (Stoelting) to induce a withdrawal response by blinded personnel. The bending force of fiber required to induce a 50% withdrawal response was calculated following CCI surgery (pre-dosing baseline). N=5-6 allodynic rats received a single IP or oral administration of test compounds or vehicle. Two hours post-dosing, 50% paw withdrawal threshold was determined again by blinded testers using von Frey filaments. The 50% withdrawal threshold prior to CCI surgery, pre-dosing (10 days post-surgery), and 2 hours post-dosing are plotted.
For selected compounds multi-day studies were perfumed with pre-determined schedules for dosing and withdrawal threshold assessments.

[8] = 10 uM ATP, ATF2 substrate, read-out: JNK 2 Inhibition (IC50 in μM)
[9] = read-out: IC50 value based upon a JNK 2 inhibition assay (range given)

Row | IC50 [1] [µM] | JNK-3 inhibition (in words) [1] | IC50 [2, 8] [µM] | IC50 [2, 9] [µM] | dual inhibition (phosphodiesterase and JNK) [3] | IC50 [4] [µM] | EC50 ([5]; read-out: MCP-1 BV-2 (EC50 in μM)) [µM] | EC50 ([5]; read-out: TNF-a BV-2 (EC50 in μM)) [µM] | PDE-4 inhibition (in words) [6] | IC50 [6] [µM] | PDE-10 inhibition (in words) [4] | Structure (SMILES) | inhibiting glial cell activation (TNF-α and/or MCP-1) ([5]; Table 3) | IP CCI efficacy (Change in grams) [7] [grams]
1 | 0.08 | particularly effective | 0.1 | 0.01 to 2 | effective dual inhibitors | > 100 | 1.2 | 0.03 | particularly effective | 5.2 | – | Clc1cccc(-c2nn3ccccc3c2-c2ccnc(NC3CCCC3)n2)c1 [AV1194, 4-(2-(3-chlorophenyl)pyrazolo[1,5-a]pyridin-3-yl)-N-cyclopentylpyrimidin-2-amine] | Particularly effective | –
2 | 2.2 | – | 8.1 | – | effective dual inhibitors | 59 | – | – | particularly effective | 2.9 | – | Cc1cccc2c(-c3ccnc(NC(C)C)n3)c(C(C)C)nn12 [AV1168, N-isopropyl-4-(2-isopropyl-7-methylpyrazolo[1,5-a]pyridin-3-yl)pyrimidin-2-amine] | – | 0
3 | 3 | – | – | 0.01 to 2 | effective dual inhibitors | 20 | – | – | particularly effective | 8.6 | – | CC(C)c1nn2ccccc2c1-c1ccnc(NC2CCC2)n1 [AV1156, N-cyclobutyl-4-(2-isopropylpyrazolo[1,5-a]pyridin-3-yl)pyrimidin-2-amine] | – | 0.33
4 | 0.7 | particularly effective | 1.5 | 0.01 to 2 | effective dual inhibitors | 37 | – | – | – | 13 | – | CC(C)CNc1nccc(-c2cnn3ccccc23)n1 [AV1167, N-isobutyl-4-(pyrazolo[1,5-a]pyridin-3-yl)pyrimidin-2-amine] | – | –
5 | 1.1 | particularly effective | 1.2 | 0.01 to 2 | effective dual inhibitors | 31 | – | – | particularly effective | 7.9 | – | CCCCc1nn2ccccc2c1-c1ccnc(NC(C)C)n1 [AV1174, 4-(2-butylpyrazolo[1,5-a]pyridin-3-yl)-N-isopropylpyrimidin-2-amine] | – | –
6 | 8.2 | – | – | – | effective dual inhibitors | 9.3 | – | – | particularly effective | 6.2 | particularly effective | CC(C)c1nn2ccccc2c1-c1ccnc(NCCCO)n1 [AV1134, 3-(4-(2-isopropylpyrazolo[1,5-a]pyridin-3-yl)pyrimidin-2-ylamino)propan-1-ol] | – | 0
7 | 0.9 | particularly effective | – | – | effective dual inhibitors | > 100 | – | – | particularly effective | 5.7 | – | Cc1nn2ccccc2c1-c1ccnc(NC2CCCC2)n1 [AV1182, N-cyclopentyl-4-(2-methylpyrazolo[1,5-a]pyridin-3-yl)pyrimidin-2-amine] | – | –
8 | 1.5 | particularly effective | – | – | effective dual inhibitors | 16.8 | – | – | particularly effective | 4.5 | particularly effective | CC(C)c1nn2ccccc2c1-c1ccnc(NC2CC2)n1 [AV1136, N-cyclopropyl-4-(2-isopropylpyrazolo[1,5-a]pyridin-3-yl)pyrimidin-2-amine] | – | 0
9 | 0.1 | particularly effective | 0.1 | 0.01 to 2 | effective dual inhibitors | > 100 | – | – | particularly effective | 3.8 | – | CC(C)Nc1nccc(-c2c(-c3ccccc3)nn3ccccc23)n1 [AV1176, N-isopropyl-4-(2-phenylpyrazolo[1,5-a]pyridin-3-yl)pyrimidin-2-amine] | – | –
10 | 1.2 | particularly effective | 4.5 | – | effective dual inhibitors | > 100 | – | – | particularly effective | 8.6 | – | COCc1nn2ccccc2c1-c1ccnc(NC(C)C)n1 [AV1175, N-isopropyl-4-(2-(methoxymethyl)pyrazolo[1,5-a]pyridin-3-yl)pyrimidin-2-amine] | – | –
11 | 1.8 | particularly effective | 3 | – | effective dual inhibitors | > 100 | – | – | particularly effective | 6.4 | – | CC(C)Cc1nn2ccccc2c1-c1ccnc(NC(C)C)n1 [AV1177, 4-(2-isobutylpyrazolo[1,5-a]pyridin-3-yl)-N-isopropylpyrimidin-2-amine] | – | –
